Measured values published in BindingDB's records for doi:10.1016/j.str.2004.10.004 (Plexxikon, 2004).

Key:
[1] = biological target: High affinity cAMP-specific and IBMX-insensitive 3',5'-cyclic phosphodiesterase 8A (Homo sapiens, UniProt O60658); test: Phosphodiesterase (PDE) Inhibition Assay
[2] = biological target: T1, Isoform 4 of Dual 3',5'-cyclic-AMP and -GMP phosphodiesterase 11A (PDE11A1) 35-489] (Homo sapiens, UniProt Q9HCR9); test: Phosphodiesterase (PDE) Inhibition Assay
T1 sequence (Q9HCR9 whole entry): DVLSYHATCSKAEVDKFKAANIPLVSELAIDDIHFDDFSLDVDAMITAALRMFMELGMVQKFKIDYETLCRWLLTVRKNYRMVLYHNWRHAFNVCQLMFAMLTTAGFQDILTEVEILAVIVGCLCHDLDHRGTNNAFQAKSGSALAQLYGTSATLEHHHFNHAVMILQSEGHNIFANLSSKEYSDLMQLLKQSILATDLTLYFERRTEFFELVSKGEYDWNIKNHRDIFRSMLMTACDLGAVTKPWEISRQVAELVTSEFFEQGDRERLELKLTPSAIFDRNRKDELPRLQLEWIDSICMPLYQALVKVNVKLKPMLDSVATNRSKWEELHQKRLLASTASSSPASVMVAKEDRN

[3] = biological target: T2, cAMP and cAMP-inhibited cGMP 3',5'-cyclic phosphodiesterase 10A [432-779] (Homo sapiens, UniProt Q9Y233); test: Phosphodiesterase (PDE) Inhibition Assay
T2 construct: 432-779
T2 sequence (Q9Y233 708-1055): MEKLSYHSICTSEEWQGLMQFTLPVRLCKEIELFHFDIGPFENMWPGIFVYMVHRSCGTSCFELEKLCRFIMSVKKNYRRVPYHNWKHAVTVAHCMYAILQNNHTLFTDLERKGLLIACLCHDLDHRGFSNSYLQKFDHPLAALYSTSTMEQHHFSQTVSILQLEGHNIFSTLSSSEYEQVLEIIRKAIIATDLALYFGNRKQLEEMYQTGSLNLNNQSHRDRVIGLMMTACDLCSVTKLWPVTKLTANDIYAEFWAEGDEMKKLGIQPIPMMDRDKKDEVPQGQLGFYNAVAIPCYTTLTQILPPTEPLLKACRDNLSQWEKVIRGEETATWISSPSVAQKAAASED

[4] = biological target: T3, cGMP-dependent 3',5'-cyclic phosphodiesterase [574-941] (Homo sapiens, UniProt O00408); test: Phosphodiesterase (PDE) Inhibition Assay
T3 construct: 574-941
T3 sequence (O00408 574-941): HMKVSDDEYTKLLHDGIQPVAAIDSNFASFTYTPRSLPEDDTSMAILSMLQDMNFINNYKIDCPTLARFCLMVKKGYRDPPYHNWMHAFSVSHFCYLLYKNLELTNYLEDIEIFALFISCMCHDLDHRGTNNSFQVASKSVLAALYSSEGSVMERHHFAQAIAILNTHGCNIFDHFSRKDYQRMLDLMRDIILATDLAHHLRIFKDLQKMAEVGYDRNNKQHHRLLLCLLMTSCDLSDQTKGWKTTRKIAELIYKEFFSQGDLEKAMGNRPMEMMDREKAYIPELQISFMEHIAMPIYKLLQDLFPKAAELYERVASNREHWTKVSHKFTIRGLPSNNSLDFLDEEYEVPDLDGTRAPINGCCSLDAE

[5] = biological target: Dual specificity calcium/calmodulin-dependent 3',5'-cyclic nucleotide phosphodiesterase 1B (Homo sapiens, UniProt Q01064); test: Phosphodiesterase (PDE) Inhibition Assay; details: pH 7.5; 30 °C
Dual specificity calcium/calmodulin-dependent 3',5'-cyclic nucleotide phosphodiesterase 1B, sequence (Q01064 whole entry): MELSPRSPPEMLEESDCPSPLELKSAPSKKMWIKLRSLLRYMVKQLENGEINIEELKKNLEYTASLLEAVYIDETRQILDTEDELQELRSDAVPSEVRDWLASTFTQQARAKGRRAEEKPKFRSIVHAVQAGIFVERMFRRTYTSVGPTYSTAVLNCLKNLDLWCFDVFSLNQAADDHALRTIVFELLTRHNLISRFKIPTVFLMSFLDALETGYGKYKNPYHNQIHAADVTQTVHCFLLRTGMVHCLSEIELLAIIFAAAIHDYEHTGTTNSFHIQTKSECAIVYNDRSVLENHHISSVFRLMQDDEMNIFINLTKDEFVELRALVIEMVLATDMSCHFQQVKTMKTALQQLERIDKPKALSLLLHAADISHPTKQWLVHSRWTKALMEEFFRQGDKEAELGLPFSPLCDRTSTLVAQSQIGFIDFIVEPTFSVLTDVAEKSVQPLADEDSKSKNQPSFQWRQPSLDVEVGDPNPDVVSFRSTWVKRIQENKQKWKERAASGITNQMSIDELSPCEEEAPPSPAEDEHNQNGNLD

[6] = biological target: T4, cAMP-specific 3',5'-cyclic phosphodiesterase 7B [91-450] (Homo sapiens, UniProt Q9NP56); test: Phosphodiesterase (PDE) Inhibition Assay
T4 construct: 91-450
T4 sequence (Q9NP56 91-450): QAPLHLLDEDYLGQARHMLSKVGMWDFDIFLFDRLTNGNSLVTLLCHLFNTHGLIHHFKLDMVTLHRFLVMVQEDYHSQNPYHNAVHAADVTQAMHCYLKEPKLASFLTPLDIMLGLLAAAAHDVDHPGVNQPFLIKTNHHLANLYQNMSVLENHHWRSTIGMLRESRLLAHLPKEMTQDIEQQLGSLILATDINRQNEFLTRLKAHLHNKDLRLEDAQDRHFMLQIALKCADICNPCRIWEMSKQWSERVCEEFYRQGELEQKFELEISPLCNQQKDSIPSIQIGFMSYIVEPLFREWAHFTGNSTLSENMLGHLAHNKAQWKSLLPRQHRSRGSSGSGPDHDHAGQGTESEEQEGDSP

[7] = biological target: T5, cGMP-inhibited 3',5'-cyclic phosphodiesterase 3B [650-1084] (Homo sapiens, UniProt Q13370); test: Phosphodiesterase (PDE) Inhibition Assay
T5 construct: 650-1084
T5 sequence (Q13370 650-1084): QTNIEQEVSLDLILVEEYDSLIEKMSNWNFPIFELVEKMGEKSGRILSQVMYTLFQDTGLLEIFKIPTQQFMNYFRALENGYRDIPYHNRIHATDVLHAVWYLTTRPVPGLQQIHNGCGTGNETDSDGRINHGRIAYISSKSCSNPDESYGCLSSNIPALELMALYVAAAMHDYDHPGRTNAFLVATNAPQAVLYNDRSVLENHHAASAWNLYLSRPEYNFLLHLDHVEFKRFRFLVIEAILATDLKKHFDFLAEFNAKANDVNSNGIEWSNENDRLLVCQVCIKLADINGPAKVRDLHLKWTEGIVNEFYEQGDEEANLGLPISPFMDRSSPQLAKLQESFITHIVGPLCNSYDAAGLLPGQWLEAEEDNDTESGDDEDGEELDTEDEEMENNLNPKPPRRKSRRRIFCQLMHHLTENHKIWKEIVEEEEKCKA

[8] = biological target: T6, High affinity cGMP-specific 3',5'-cyclic phosphodiesterase 9A [226-593] (Homo sapiens, UniProt O76083)
T6 construct: 226-593
T6 sequence (O76083 226-593): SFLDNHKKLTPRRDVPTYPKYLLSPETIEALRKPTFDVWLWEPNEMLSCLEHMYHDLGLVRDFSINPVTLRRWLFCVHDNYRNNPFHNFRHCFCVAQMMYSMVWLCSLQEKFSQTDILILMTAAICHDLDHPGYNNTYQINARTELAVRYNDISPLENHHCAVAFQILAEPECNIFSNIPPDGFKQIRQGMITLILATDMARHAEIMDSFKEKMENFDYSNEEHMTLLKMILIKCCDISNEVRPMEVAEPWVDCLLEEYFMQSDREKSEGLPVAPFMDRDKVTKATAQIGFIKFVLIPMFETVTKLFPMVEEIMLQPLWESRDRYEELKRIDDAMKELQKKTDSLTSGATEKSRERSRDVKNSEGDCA

[9] = biological target: T7, cGMP-specific 3',5'-cyclic phosphodiesterase [531-875] (Homo sapiens, UniProt O76074); test: Phosphodiesterase (PDE) Inhibition Assay
T7 construct: 531-875

[10] = biological target: cAMP-specific 3',5'-cyclic phosphodiesterase 4D [372-376,381-715,S375G,I381V,S383G,G384S,V385H,K386M) (Homo sapiens, UniProt Q08499, S375G/I381V/S383G/G384S/V385H/K386M); test: Phosphodiesterase (PDE) Inhibition Assay

High affinity cAMP-specific and IBMX-insensitive 3',5'-cyclic phosphodiesterase 8A, sequence (O60658 whole entry, canonical isoform): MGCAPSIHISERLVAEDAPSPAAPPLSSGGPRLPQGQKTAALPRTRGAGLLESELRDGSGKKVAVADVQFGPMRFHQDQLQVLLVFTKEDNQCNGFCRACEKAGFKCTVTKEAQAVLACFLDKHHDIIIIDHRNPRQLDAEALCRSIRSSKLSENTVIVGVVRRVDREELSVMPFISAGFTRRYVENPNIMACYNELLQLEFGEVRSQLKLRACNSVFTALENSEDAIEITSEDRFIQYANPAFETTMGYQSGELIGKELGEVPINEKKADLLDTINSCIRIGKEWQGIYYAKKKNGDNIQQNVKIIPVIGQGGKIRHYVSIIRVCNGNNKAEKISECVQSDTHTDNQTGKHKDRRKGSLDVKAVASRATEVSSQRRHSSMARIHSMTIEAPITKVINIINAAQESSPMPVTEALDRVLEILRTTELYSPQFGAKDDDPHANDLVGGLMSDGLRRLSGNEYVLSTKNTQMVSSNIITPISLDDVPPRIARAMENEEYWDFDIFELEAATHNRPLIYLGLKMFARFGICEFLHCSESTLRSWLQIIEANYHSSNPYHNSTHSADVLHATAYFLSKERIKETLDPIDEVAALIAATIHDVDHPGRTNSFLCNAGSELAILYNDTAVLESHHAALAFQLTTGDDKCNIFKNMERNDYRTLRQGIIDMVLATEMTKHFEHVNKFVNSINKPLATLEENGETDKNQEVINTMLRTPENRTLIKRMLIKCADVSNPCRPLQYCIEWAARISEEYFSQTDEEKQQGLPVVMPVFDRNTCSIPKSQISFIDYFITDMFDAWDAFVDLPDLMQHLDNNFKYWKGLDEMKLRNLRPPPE

Compound | IC50 [1] [µM] | IC50 [3] [µM] | IC50 [4] [µM] | IC50 [2] [µM] | IC50 [5] [µM] | IC50 [6] [µM] | IC50 [7] [µM] | IC50 [8] [µM] | IC50 ([4]; pH 7.5, 30 °C) [µM] | IC50 [9] [µM] | IC50 [10] [µM]
CN1CC(=O)N2[C@H](c3ccc4c(c3)OCO4)c3[nH]c4ccccc4c3C[C@@H]2C1=O | > 200 | 19 | 130 |  | 50 | 74 | 280 | 150 |  |  | 
COc1ccc([C@@H]2CNC(=O)C2)cc1OC1CCCC1 (racemic) [Adeo] | > 200 |  |  | > 200 | > 200 | > 200 | > 200 | > 200 | > 200 |  | 
COc1ccc(C(=O)Nc2c(Cl)cncc2Cl)cc1OC1CCCC1 [3-(cyclopentyloxy)-N-(3,5-dichloropyridin-4-yl)-4-methoxybenzamide] | > 200 |  | 54 | 1.6 | 68 |  | 11 | > 200 |  | 3.5 | 
COc1cc(-c2ccc(=O)[nH]n2)ccc1OC(F)F [6-[4-(difluoromethoxy)-3-methoxyphenyl]-2,3-dihydropyridazin-3-one] | 160 | 14 |  | 140 | > 200 |  | 1.5 | > 200 | > 200 | 81 | 
COc1ccc(C(C)=NOC(N)=O)cc1OC1CCCC1 [(E)-{1-[3-(cyclopentyloxy)-4-methoxyphenyl]ethylidene}amino carbamate] | 120 | 27 |  | 57 | 190 | 0.99 | 9.4 | > 200 | 89 | 53 | 1

Now from value to compound, other results behind:

IC50 [1] [µM] | IC50 [3] [µM] | IC50 [4] [µM] | Compound | IC50 [2] [µM] | IC50 [5] [µM] | IC50 [6] [µM] | IC50 [7] [µM] | IC50 [8] [µM] | IC50 ([4]; pH 7.5, 30 °C) [µM] | IC50 [9] [µM] | IC50 [10] [µM]
57 | 0.88 | 3.1 | CCCc1nc(C)c2c(=O)[nH]c(-c3cc(S(=O)(=O)N4CCN(CC)CC4)ccc3OCC)nn12 | 0.24 |  |  |  |  |  |  | 
> 200 | 63 |  | CCCOc1cc(C2(C)CNC(=O)O2)ccc1OC (racemic) [5-(4-methoxy-3-propoxyphenyl)-5-methyl-1,3-oxazolidin-2-one] | > 200 | > 200 |  | > 200 | > 200 | > 200 | > 200 | 
7 | 73 |  | COc1ccc(C2(C#N)CCC(C(=O)O)CC2)cc1OC1CCCC1 (stereo not drawn) [Ariflo] | 21 | 87 |  | 87 | > 200 | 160 | 53 | 
> 200 | > 200 | > 200 | O=C(Nc1c(Cl)cncc1Cl)c1ccc(OC(F)F)c(OCC2CC2)c1 [DAXAS] | 25 | > 200 | > 200 | > 200 | > 200 |  | 17 | 
